Test results: ChEMBL document CHEMBL1201862, “PubChem BioAssay data set” (2004)
Activity calls are given as the source filed them.

How the values were obtained:
[1] = NIH-3T3 fibroblast cytotoxicity, dose response, cytotoxicity control, cell-based, fluorescence, Alamar Blue, secondary assay (AID 2327); assay type: functional;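 further: NIH-3T3 mouse fibroblasts cultured with fluconazole at 8 µg/mL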
[2] = luciferase reporter signal suppression in cells – H4 neuroglioma cells, luminescence, dose response (AID 1990); assay type: functional, cell-based
[3] = system: BJ; assay: BJ-TERT fibroblast viability loss – cell-based, RAS-independent, luminescence, dose response (AID 1933); assay type: functional; details: Homo sapiens
[4] = cells; assay type: functional, cell-based
[5] = Luminescence Cell-Based Dose Response HTS to Identify Inhibitors of 5'UTR Stem-Loop Driven Prion Protein mRNA Translation in H4 Neuroglioblastoma Cells. [Related pubchem assays: 1827 (Project Summary), 1813 (Primary HTS)]; assay type: functional
[6] = alpha-synuclein stem-loop luciferase translation blockers – H4 neuroglioma cells, luminescence, confirmation (AID 1988); assay type: functional, cell-based
[7] = system: BJ; assay: cells; assay type: functional, cell-based; details: Homo sapiens
[8] = cells; assay type: functional, cell-based; remark: listed apart in the source
[9] = system: BJ; assay: BJ-TERT-LT-ST fibroblast viability loss – cell-based, RAS-independent, luminescence, dose response (AID 1935); assay type: functional; details: Homo sapiens;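 further: BJ fibroblasts immortalized with TERT plus LT and ST oncogenes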
[10] = DRD fibroblast viability loss – cell-based, non-viral oncogenic, luminescence, dose response (AID 1934); assay type: functional; details: Homo sapiens
[11] = system: HEK293; assay: EBV LMP1 TES2 canonical NF-kB signalling blockers – cell-based, HEK293, luciferase, cherry-pick, dose response (AID 588343); assay type: functional; details: Homo sapiens
[12] = system: BJ; assay: growth inhibition of engineered Ras-driven BJ cells – cell-based, alamar blue fluorescence, cherrypicked samples, dose response (AID 2631); assay type: functional; details: Homo sapiens;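 further: confirmatory dose-response assay in RAS-dependent BJ fibroblasts engineered with TERT, LT and ST, with cytotoxicity read by fluorescence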
[13] = system: INS1; assay: INS-1E survival protection against cytokine death – cell-based, luminescence, retest, dose response (AID 449756); assay type: functional; details: Rattus norvegicus;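 further: cell death triggered by IL-1 beta plus TNF-alpha plus IFN-gamma mixture; protective hits raise ATP signal compared with cytokine alone wells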
[14] = target: T1, Long-chain-fatty-acid--AMP ligase FadD28 (Mycobacterium tuberculosis, UniProt P9WQ59); assay: Fluorescence polarization aasay to screen for inhibitors that compete for the binding of FadD28 to a bisubstrate Measured in Biochemical System Using Plate Reader - 2147-01_Inhibitor_Dose_CherryPick_Activity.; assay type: functional, Mycobacterium tuberculosis H37Rv
T1 sequence (P9WQ59 whole entry): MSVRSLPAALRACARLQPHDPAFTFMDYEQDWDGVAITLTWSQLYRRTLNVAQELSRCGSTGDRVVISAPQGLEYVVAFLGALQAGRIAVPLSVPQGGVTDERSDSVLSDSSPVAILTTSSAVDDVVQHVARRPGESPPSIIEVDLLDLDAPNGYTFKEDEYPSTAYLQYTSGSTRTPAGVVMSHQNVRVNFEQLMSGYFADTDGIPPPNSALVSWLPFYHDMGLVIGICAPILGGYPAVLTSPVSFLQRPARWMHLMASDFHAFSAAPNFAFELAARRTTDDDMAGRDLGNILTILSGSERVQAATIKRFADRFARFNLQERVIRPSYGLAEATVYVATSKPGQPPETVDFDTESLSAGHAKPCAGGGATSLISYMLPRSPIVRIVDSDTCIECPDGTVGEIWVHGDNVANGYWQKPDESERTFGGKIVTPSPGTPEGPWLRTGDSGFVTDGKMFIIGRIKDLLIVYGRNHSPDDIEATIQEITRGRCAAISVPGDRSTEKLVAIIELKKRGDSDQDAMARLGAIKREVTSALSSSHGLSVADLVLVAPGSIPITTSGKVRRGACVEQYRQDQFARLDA

[15] = Luminescence Cell-Based Dose Retest to Confirm Inhibitors of Cancer Stem Cells. [Related pubchem assays (depositor defined):AID2717, AID2721]; assay type: functional; details: Homo sapiens
[16] = target: T2, Bcl-2-related protein A1 (Mus musculus, UniProt Q07440); assay type: functional;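 further: confirmatory dose–response counterscreen on Bfl-1, used to check hits from a UBC13 polyubiquitin inhibitor campaign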
T2 sequence (Q07440 whole entry): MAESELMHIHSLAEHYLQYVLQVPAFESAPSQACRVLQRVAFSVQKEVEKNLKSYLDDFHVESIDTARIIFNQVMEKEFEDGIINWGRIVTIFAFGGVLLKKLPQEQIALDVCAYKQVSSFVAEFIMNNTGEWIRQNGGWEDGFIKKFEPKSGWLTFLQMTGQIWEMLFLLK

[17] = target: T3, Ubiquitin-conjugating enzyme E2 N (Homo sapiens, UniProt P61088); assay type: functional
T3 sequence (P61088 whole entry): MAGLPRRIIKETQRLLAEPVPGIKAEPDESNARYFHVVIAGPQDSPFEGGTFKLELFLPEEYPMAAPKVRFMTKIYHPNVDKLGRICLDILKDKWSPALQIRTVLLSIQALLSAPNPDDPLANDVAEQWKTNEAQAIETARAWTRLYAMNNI

[18] = target: T3, Ubiquitin-conjugating enzyme E2 N; assay type: functional; remark: listed apart in the source
[19] = target: T4, Insulin-degrading enzyme (Homo sapiens, UniProt P14735); assay: recombinant IDE activation, cell-free – biochemical, fluorescence polarization, counter-screen for IDE activator project, dose response (AID 588681)
T4 sequence (P14735 whole entry): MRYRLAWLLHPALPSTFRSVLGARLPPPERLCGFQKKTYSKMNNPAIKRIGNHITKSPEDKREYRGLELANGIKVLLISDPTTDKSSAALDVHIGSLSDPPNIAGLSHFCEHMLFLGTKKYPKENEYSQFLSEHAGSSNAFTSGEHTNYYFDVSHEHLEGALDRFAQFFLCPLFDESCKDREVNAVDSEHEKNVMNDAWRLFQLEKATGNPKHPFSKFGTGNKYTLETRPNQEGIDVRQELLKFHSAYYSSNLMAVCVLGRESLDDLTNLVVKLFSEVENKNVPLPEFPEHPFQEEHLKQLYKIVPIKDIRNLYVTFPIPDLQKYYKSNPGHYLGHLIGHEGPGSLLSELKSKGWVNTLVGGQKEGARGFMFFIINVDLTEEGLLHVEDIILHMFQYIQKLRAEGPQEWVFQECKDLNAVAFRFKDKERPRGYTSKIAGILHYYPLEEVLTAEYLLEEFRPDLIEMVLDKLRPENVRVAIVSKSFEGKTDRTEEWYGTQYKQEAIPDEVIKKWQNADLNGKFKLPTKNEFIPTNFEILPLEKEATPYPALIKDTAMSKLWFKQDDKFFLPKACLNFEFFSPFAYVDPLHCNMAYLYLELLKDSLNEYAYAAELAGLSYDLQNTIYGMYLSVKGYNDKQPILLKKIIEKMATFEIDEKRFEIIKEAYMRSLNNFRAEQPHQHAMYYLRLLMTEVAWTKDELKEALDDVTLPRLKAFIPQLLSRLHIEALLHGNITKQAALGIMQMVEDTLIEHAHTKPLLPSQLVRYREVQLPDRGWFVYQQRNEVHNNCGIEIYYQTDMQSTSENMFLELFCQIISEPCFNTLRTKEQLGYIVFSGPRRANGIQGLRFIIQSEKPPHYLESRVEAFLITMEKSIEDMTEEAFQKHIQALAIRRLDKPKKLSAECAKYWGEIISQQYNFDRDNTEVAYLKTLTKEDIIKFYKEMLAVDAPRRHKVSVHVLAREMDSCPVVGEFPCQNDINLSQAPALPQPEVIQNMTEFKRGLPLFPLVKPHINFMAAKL

[20] = target: T4, Insulin-degrading enzyme; assay: cellular IDE activation of Abeta substrate cleavage – fluorescence polarization, HEK cells, dose response (AID 588439); assay type: functional, cell-based
[21] = system: HEK293; assay: membrane integrity loss in HEK cells – cell-based, fluorescence, cytotoxicity control for IDE activator project, dose response (AID 588440); assay type: functional; details: Homo sapiens;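 further: cytotoxicity by LDH release measuring loss of membrane integrity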
[22] = system: HEK293; assay: optical interference in Abeta FP readout, dose response, artefact control for IDE activator project, biochemical, fluorescence polarization (AID 588442); assay type: functional, cell-based; details: Homo sapiens

In the case of `CCN(CC)c1ccc(/C=N/NC(=O)c2ccc3[nH]cnc3c2)c(O)c1`, the EC50 [1] was 6.84 µM (active), the EC50 [2] was 3.35 µM (active) and the EC50 [3] was 4.19 µM (active). The EC50 [4] was 8.39 µM (active), the EC50 [5] was 4.29 µM (active) and the EC50 [6] was 7.51 µM (active). The EC50 [7] was 7.44 µM (inconclusive), the EC50 [8] was > 350 µM (not active) and the EC50 [9] was 9.27 µM (active). For the same compound, the EC50 [10] was 4.54 µM (active), the AC50 [11] was 7.07 µM (active) and the EC50 [12] was 944 nM (active). The AC50 [13] was 827 nM (active) and the AC50 [14] was 13.1 µM (active).

With `FC(F)(F)c1cc(CCN2CCNC[C@H]2Cc2cccc3ccccc23)cc(C(F)(F)F)c1` the AC50 [15] was 3.37 µM (active), the IC50 [16] was > 20 µM (inactive) and the IC50 [17] was 11.7 µM (active). For the same compound, the IC50 [18] was 9.82 µM (active), the EC50 [19] was > 54.7 µM (inactive) and the EC50 [20] was 11.1 µM (inactive). For the same compound, the IC50 [21] was 10.1 µM (inactive) and the EC50 [22] was > 55.9 µM (inactive).
